We go through four molecules from ChEMBL document CHEMBL5223093, “Recent advances in the discovery of protein tyrosine phosphatase SHP2 inhibitors” (RSC Med Chem, 2022).

Each structure is given as a SMILES string.

For assay [1], the target named is T1, Tyrosine-protein phosphatase non-receptor type 11 (Homo sapiens, UniProt Q06124).
T1 sequence (Q06124 whole entry): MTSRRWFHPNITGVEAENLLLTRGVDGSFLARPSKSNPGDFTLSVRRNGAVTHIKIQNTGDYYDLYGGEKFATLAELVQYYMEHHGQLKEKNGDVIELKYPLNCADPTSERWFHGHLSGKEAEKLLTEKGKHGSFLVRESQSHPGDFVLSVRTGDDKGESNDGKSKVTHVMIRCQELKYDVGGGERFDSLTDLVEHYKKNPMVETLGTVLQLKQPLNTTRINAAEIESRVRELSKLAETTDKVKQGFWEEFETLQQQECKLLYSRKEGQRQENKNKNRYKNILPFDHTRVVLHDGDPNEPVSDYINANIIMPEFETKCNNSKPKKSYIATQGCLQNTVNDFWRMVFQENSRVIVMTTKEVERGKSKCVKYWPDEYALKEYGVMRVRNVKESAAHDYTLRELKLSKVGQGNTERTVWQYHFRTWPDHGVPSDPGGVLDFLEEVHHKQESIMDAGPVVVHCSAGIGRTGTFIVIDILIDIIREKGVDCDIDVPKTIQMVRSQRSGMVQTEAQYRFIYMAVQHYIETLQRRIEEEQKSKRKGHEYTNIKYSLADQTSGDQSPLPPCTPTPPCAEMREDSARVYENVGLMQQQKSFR
The assay is described as follows: Inhibition of full length SHP2 (unknown origin) using DiFMUP as substrate preincubated for 30 mins followed by substrate addition.

A short description of assay [2]: Downregulation of DUSP6 transcription in human KYSE-520 cells at 30 uM measured after 2 hrs relative to control. It counts as functional.

The IC50 is the concentration at which inhibition is half-maximal. A low value points to inhibition by little substance. In assay [1], `Cc1nc(N2CCC3(CC2)OC[C@@H](C)[C@H]3N)c(CO)nc1-c1cccc(Cl)c1Cl` gave an IC50 of 0.583 nM.
For the molecule `O=C(O)c1ccc(O)c(-c2nnc3n(Cc4ccccc4Cl)c(=O)c4ccccc4n23)c1`, the Activity in assay [2] is given as 55%.
In assay [2], `COc1cccc(-c2nnc3n(Cc4ccc(C(=O)N5CCC[C@H]5C(=O)O)cc4Cl)c(=O)c4ccccc4n23)c1O` displayed an Activity of 43%.
Molecule `COc1cccc(-c2nnc3n(Cc4ccccc4Cl)c(=O)c4ccccc4n23)c1O` returned an Activity in assay [2] of 65%.
